Assay results: ChEMBL document CHEMBL3217678 (Medchemcomm, 2011)
pIC50: −log10 of the molar value. Active and inactive are the calls of the source. No cut-off for these calls is given here.

Legend:
[1] = Half life in 100 fold molar excess of deuterated water in DMSO at 37 degC by [1H]-NMR analysis; format: physicochemical
[2] = biological target: T1, 26S proteasome (Homo sapiens) (UniProt Q99460+P49721+P20618+P28074+P28062+P28065+P28072+O00487+P25786+P25787+P25788+P25789+P28066+P60900+O14818+Q8TAA3+P40306+A5LHX3+P49720+P28070+Q99436+Q16186+P35998+P62191+P43686+P62333+P17980+P62195+Q13200+O43242+O00232+O00231+Q15008+P51665+Q9UNM6+P55036+P48556+P60896); details: HeLa, 26 nM
Description: Inhibition of 20S proteasome in human HeLa cells expressing GFP-tagged ubiquitin G76V mutant at 26 nM after 16 hrs by fluorescence assay

26S proteasome = assay: Inhibition of human 20S proteasome using Suc-LLVY-AMC as substrate preincubated for 30 mins followed by substrate addition measured after 90 mins by fluorescence assay; format: protein-complex assay
[3] = biological target: T1, 26S proteasome (Homo sapiens); assay: Inhibition of 20S proteasome in human HeLa cells expressing GFP-tagged ubiquitin G76V mutant at 23 uM after 16 hrs by fluorescence assay; format: cell-based
[4] = biological target: T1, 26S proteasome (Homo sapiens); assay: Inhibition of human 20S proteasome using Suc-LLVY-AMC as substrate assessed as decrease in enzyme velocity; format: protein-complex assay

Row | Compound | half-life [1] [h] | inhibition [2] | pIC50 (26S proteasome) | inhibition [3] | inhibition [4]
1 | COc1cccc(-c2nsc(=O)o2)c1 | 20 | – | – | – | –
2 | CC(C)C[C@H](NC(=O)[C@H](Cc1ccccc1)NC(=O)c1cnccn1)B(O)O [BORTEZOMIB] | – | Active | – | – | –
3 | CC(C)C[C@H](NC(=O)[C@H](Cc1ccccc1)NC(=O)c1cnccn1)c1nsc(=O)o1 | 156 | – | 3.97 | Active | Dose-dependent effect
4 | CC(C)C[C@@H](NC(=O)[C@H](Cc1ccccc1)NC(=O)c1cnccn1)c1nsc(=O)o1 | – | – | 3.65 | inactive | Dose-dependent effect
